Laboratory results published in ChEMBL document CHEMBL5550119, “Design, synthesis, and evaluation of formylpiperazine analogs of Ferrostatin-1 as novel improved ferroptosis inhibitors” (Bioorg Med Chem, 2024).
Converted amounts (≈) assume the structure as drawn. The source made the active and inactive calls. The rule behind the calls is not given here.

Key:
HUVEC [1] = assay: Anti-ferroptosis activity in erastin-induced HUVEC cells assessed as increase in GPX4 protein level at 10 uM incubated for 24 hrs by Western blot analysis; assay type: functional, cell-based; conditions: Homo sapiens
[2] = Metabolic stability in human liver microsomes assessed as half life at […] incubated for 2 hrs in presence of NADPH by LC-MS/MS analysis; assay type: ADME, Microsome
[3] = Antioxidant activity assessed as DPPH radical scavenging activity at 50 uM incubated under dark condition for 30 mins by absorbance based analysis relative to control; assay type: functional
HUVEC [4] = assay: Anti-ferroptosis activity in erastin-induced HUVEC cells assessed as increase in GSH level at 10 uM incubated for 24 hrs; assay type: functional, cell-based; conditions: Homo sapiens
[5] = Antioxidant activity assessed as DPPH radical scavenging activity incubated under dark condition for 30 mins by absorbance based analysis; assay type: functional
HUVEC [6] = assay: Anti-ferroptosis activity in erastin-induced HUVEC cells assessed as reduction in mitochondrial impairment by measuring reduction in number of JC-1 monomers at 10 uM incubated for 24 hrs by JC-1 fluorescent probe based fluorescence microscopic analysis; assay type: functional, cell-based; conditions: Homo sapiens
[7] = Metabolic stability in rat liver microsomes assessed as half life at […] incubated for 2 hrs in presence of NADPH by LC-MS/MS analysis; assay type: ADME, Microsome
HUVEC [8] = assay: Anti-ferroptosis activity in erastin-induced HUVEC cells assessed as reduction in cytoplasmic ferrous ion level at 10 uM incubated for 24 hrs by FerroOrange fluorescent probe based fluorescence microscopic analysis; assay type: functional, cell-based; conditions: Homo sapiens
HUVEC [9] = assay: Anti-ferroptosis activity in erastin-induced HUVEC cells assessed as reduction in ROS level by measuring reduction in DCF fluorescence intensity at 10 uM incubated for 24 hrs by DCFH-DA fluorescent probe based fluorescence microscopic analysis; assay type: functional, cell-based; conditions: Homo sapiens
[10] = Solubility of compound in PBS buffer at pH 7.4 at 3.13 to 200 uM incubated for 2 hrs by turbidity based assay; assay type: physicochemical; conditions: dose 3.13-200 µM
HUVEC [11] = assay: Anti-ferroptosis activity in HUVEC cells assessed as inhibition of erastin-induced ferroptosis by measuring lethality suppression incubated for 24 hrs by SRB assay; assay type: functional, cell-based; conditions: Homo sapiens
HUVEC [12] = assay: Anti-ferroptosis activity in HUVEC cells assessed as inhibition of erastin-induced ferroptosis by measuring lethality suppression at 10 uM incubated for 24 hrs by SRB assay; assay type: functional, cell-based; conditions: Homo sapiens
HUVEC [13] = assay: Anti-ferroptosis activity in erastin-induced HUVEC cells assessed as reduction in lipid peroxidation level at 10 uM incubated for 24 hrs; assay type: functional, cell-based; conditions: Homo sapiens
HUVEC [14] = assay: Anti-ferroptosis activity in erastin-induced HUVEC cells assessed as reduction in malondialdehyde level at 10 uM incubated for 24 hrs; assay type: functional, cell-based; conditions: Homo sapiens

| half-life [2] [min] | IC50 [5] [µM] | half-life [7] [min] | solubility kinetic at 2 h [10] [µM] | Structure (SMILES) | Activity (HUVEC [1]) | Activity [3] [%] | Activity (HUVEC [4]) | Activity (HUVEC [6]) | Activity (HUVEC [8]) | Activity (HUVEC [9]) | EC50 (HUVEC [11]) [µM] | Activity (HUVEC [12]) | Activity (HUVEC [13]) | Activity (HUVEC [14]) |
| --- | --- | --- | --- | --- | --- | --- | --- | --- | --- | --- | --- | --- | --- | --- |
| 16.8 | 54.3 | 18.4 | > 200 | CCOC(=O)c1ccc(NC2CCCCC2)c(N)c1 | Active | 52.5 | Active | Active | Active | Active |  |  |  |  |
| 50.2 | 28.9 | 35.7 | 28.6 (≈ 16 µg/mL) | CS(=O)(=O)c1ccc(CN2CCN(C(=O)c3ccc(NC4CCCCC4)c(NCc4ccccc4)c3)CC2)cc1 | Active | 54 | Active | Active | Active | Active | 0.5 |  | Active | Active |
|  | 46.8 |  | 6.2 (≈ 2.19 µg/mL) | CCOC(=O)c1ccc(NC2CCCCC2)c(NCc2ccccc2)c1 |  | 56.4 |  |  |  |  |  |  |  |  |
|  | 41.3 |  | 20 (≈ 11.8 µg/mL) | COc1ccc(Br)c(CN2CCN(C(=O)c3ccc(NC4CCCCC4)c(NCc4ccccc4)c3)CC2)c1 |  | 63.8 |  |  |  |  | 0.68 |  |  |  |

Second part, the molecule before the results:

| Structure (SMILES) | half-life [2] [min] | IC50 [5] [µM] | half-life [7] [min] | solubility kinetic at 2 h [10] [µM] | Activity (HUVEC [1]) | Activity [3] [%] | Activity (HUVEC [4]) | Activity (HUVEC [6]) | Activity (HUVEC [8]) | Activity (HUVEC [9]) | EC50 (HUVEC [11]) [µM] | Activity (HUVEC [12]) | Activity (HUVEC [13]) | Activity (HUVEC [14]) |
| --- | --- | --- | --- | --- | --- | --- | --- | --- | --- | --- | --- | --- | --- | --- |
| O=C(c1ccc(NC2CCCCC2)c(NCc2ccccc2)c1)N1CCN(Cc2ccncc2)CC1 |  | 43.6 |  | 20 (≈ 9.67 µg/mL) |  | 55.4 |  |  |  |  | 0.79 |  |  |  |
| CN1CCN(C(=O)c2ccc(NC3CCCCC3)c(NCc3ccccc3)c2)CC1 |  |  |  |  |  |  |  |  |  |  |  | inactive |  |  |
| O=C(c1ccc(NC2CCCCC2)c(NCc2ccccc2)c1)N1CCN(Cc2ccc(F)cc2Br)CC1 |  | 60.8 |  | 28.6 (≈ 16.6 µg/mL) |  | 50.5 |  |  |  |  | 0.73 |  |  |  |
| O=C(c1ccc(NC2CCCCC2)c(NCc2ccccc2)c1)N1CCN(Cc2ccc(-c3ccccc3)c(-c3ccccc3)c2)CC1 |  | 42.9 |  | 22.2 (≈ 14.1 µg/mL) |  | 54 |  |  |  |  | 0.61 |  |  |  |
